According to patent publication US20240270695A1, “COMPOUNDS, COMPOSITIONS AND METHODS OF TREATING DISORDERS” (Chengdu Anticancer Bioscience LTD, priority 2021, published 2024):

Key:
[1] = tested on: RPE-Neo or RPE-MYC or RPE-MYC expressing an EGFP-Histone 2B fusion protein; assay: Phenotypic screening assay (arrest in mitosis, change in DNA content, cell death; GE IN-Cell Analyzer 2000); assay type: cell-based; conditions: Homo sapiens, compounds 20 nM to 20 μM, 24, 48 or 72 hours
[2] = tested on: RPE-Neo or RPE-MYC or RPE-MYC expressing an EGFP-Histone 2B fusion protein; assay: MTT assays of cellular proliferation; assay type: cell-based; conditions: Homo sapiens, min. effective conc., read-out: Proliferative arrest (<50%)

Measured: minimal effective concentration

COc1ccc2c(c1)N(Cc1ccc(C)c(F)c1)C(=O)CC(C(=O)C1CC1)=C2O [Example 141, 4-(cyclopropanecarbonyl)-1-(3-fluoro-4-methylbenzyl)-5-hydroxy-8-methoxy-1,3-dihydro-2H-benzo[b]azepin-2-one]
0.001 to 1 µM: [1]; read-out: Min. Effective conc. for Polyploidy (≥10%) | [1]; min. effective conc., read-out: Cell Death (>30%) | [1]; min. effective conc., read-out: Mitotic Arrest (≥10%) | [2]
